{"source": "paper PMC2408923", "about": "“N-methylisatin-beta-thiosemicarbazone derivative (SCH 16) is an inhibitor of Japanese encephalitis virus infection in vitro and in vivo” (Virology Journal, 2008)", "key": {"[1]": {"assay": "in vitro", "details": "pig"}, "[2]": {"tested_on": "JEV (P20778)", "assay": "Plaque reduction assay, JEV in PS cells", "details": "for IC50 / pIC50: Japanese encephalitis virus; for pIC50: read-out: IC50, plaque reduction, JEV (molar)"}, "[3]": {"tested_on": "Den-2 virus (P23085)", "assay": "Plaque reduction assay, Den-2 in BHK 21 cells", "type": "cell-based, Dengue-2 virus", "details": "non-cytotoxic concentrations"}, "[4]": {"assay": "in vitro", "details": "hamster"}, "[5]": {"tested_on": "WNV (G22886)", "assay": "Plaque reduction assay, WNV in PS cells", "details": "for IC50 / pIC50: West Nile virus; for pIC50: read-out: IC50, plaque reduction, WNV (molar)"}, "[6]": {"tested_on": "JEV replication in PS cells", "assay": "Kinetics of antiviral activity: staggered addition of SCH 16 to JEV infected PS cells", "type": "cell-based, Japanese Encephalitis Virus", "details": "for Inhibition of JEV replication (viral RNA, viral antigen, virus yield): read at 48 hours; for JEV antigen by immunofluorescence: Figure 3 Panel B"}, "[7]": {"tested_on": "JEV (P20778)", "assay": "In vivo evaluation by peripheral (intraperitoneal) JEV challenge", "design": "species or system Swiss albino mice", "details": "for Protection: mice, 50LD50 JEV intraperitoneal"}, "[8]": {"tested_on": "JEV, WNV and Den-2", "assay": "Cytopathic effect (CPE) inhibition assay", "type": "cell-based", "details": "screen against JEV, doubling dilutions beginning with CC50"}, "[9]": {"tested_on": "JEV", "assay": "In vivo evaluation by intracerebral JEV challenge", "design": "species or system Swiss albino mice"}, "[10]": {"tested_on": "JEV replication in PS cells", "assay": "Minimum contact time: SCH 16 removed at time points from JEV infected PS cells", "type": "cell-based, Japanese Encephalitis Virus"}, "[11]": {"tested_on": "JEV translation", "assay": "In vitro translation of RNA from SCH 16 treated JEV infected PS cells"}}, "note": "pIC50: −log10 of the molar value. Where two headings read alike, the source gives them in different places."}
{"smiles": "NC(=O)c1ncn([C@@H]2O[C@H](CO)[C@@H](O)[C@H]2O)n1", "note": "[Ribavirin, reference compound]", "values": [{"measurement": "CC50", "setting": "[1]", "result": 50, "unit": "µg/mL"}, {"measurement": "IC50", "setting": "[2]; 72 h, read-out: IC50, plaque reduction, JEV", "result": 3.9, "unit": "µg/mL"}, {"measurement": "pIC50", "setting": "[2]", "result": 4.80}, {"measurement": "Antiviral activity against Den-2 plaque formation", "setting": "[3]", "result": "dose dependent inhibition"}, {"measurement": "CC50", "setting": "[4]", "result": 200, "unit": "µg/mL"}, {"measurement": "IC50", "setting": "[5]; read-out: IC50, plaque reduction, WNV", "result": 1.7, "unit": "µg/mL"}, {"measurement": "pIC50", "setting": "[5]", "result": 5.15}]}
{"smiles": "COc1cc(-c2cnc(/N=C3\\C(=O)N(CN4CCN(c5ccc([N+](=O)[O-])cc5)CC4)c4ccccc43)nc2N)cc(OC)c1OC", "note": "[SCH 16]", "values": [{"measurement": "CC50", "setting": "[1]", "result": 76, "unit": "µg/mL"}, {"measurement": "Inhibition of JEV replication (viral RNA, viral antigen, virus yield)", "setting": "[6]; 76 μg/ml added at 2, 4, 6 and 8 hours post-infection", "result": "completely inhibit"}, {"measurement": "JEV antigen by immunofluorescence", "setting": "[6]; SCH 16 added at 0, 2, 4, 6 and 8 hrs post infection", "result": "undetectable"}, {"measurement": "JEV antigen by immunofluorescence", "setting": "[6]; SCH 16 added at 10, 12 and 14 hours post infection", "result": "positive for viral antigen"}, {"measurement": "Inhibition of JEV replication (viral RNA, viral antigen, virus yield)", "setting": "[6]; added beyond 8 hours post infection", "result": "did not completely inhibit"}, {"measurement": "Protection", "setting": "[7]; 200 mg/kg body weight oral twice daily", "result": 25, "unit": "%"}, {"measurement": "Protection", "setting": "[7]; 400 mg/kg body weight oral twice daily", "result": 50, "unit": "%"}, {"measurement": "Protection", "setting": "[7]; 500 mg/kg body weight oral twice daily", "result": "complete protection"}, {"measurement": "Prevention of mortality", "setting": "[7]; mouse, in vivo", "result": 100, "unit": "%"}, {"measurement": "Viral RNA in brain homogenate by RT-PCR", "setting": "[7]; mouse, in vivo", "result": "viral RNA was present"}, {"measurement": "Viral antigen in brain smears by immunofluorescent staining", "setting": "[7]; mouse, in vivo", "result": "no viral antigen could be demonstrated"}, {"measurement": "Virus isolation from brain tissue of surviving mice", "setting": "[7]; mouse, in vivo", "result": "could not be isolated"}, {"measurement": "IC50", "setting": "[2]; read-out: IC50, concentration inhibiting 50% of the plaques produced by JEV", "result": 16, "unit": "µg/mL"}, {"measurement": "pIC50", "setting": "[2]", "result": 4.60}, {"measurement": "Therapeutic Index (TI), CC50/IC50, JEV", "setting": "[2]; ratio of CC50 to IC50", "result": 5}, {"measurement": "Antiviral activity against Den-2 plaque formation", "setting": "[3]", "result": "No antiviral activity"}, {"measurement": "CC50", "setting": "[4]", "result": 126, "unit": "µg/mL"}, {"measurement": "Inhibition of CPE", "setting": "[8]", "result": "showed inhibition of CPE"}, {"measurement": "Day of death", "setting": "[9]; mouse, in vivo", "result": 9, "unit": "days"}, {"measurement": "Prolonged survival time between treated and untreated mice", "setting": "[9]; mouse, in vivo", "result": 3, "unit": "days"}, {"measurement": "Protection", "setting": "[9]; mouse, in vivo", "result": "no protection"}, {"measurement": "Day post-infection when symptoms started appearing", "setting": "[9]; treated mice, intracerebral challenge, untreated sick by day 3", "result": 7, "unit": "days"}, {"measurement": "IC50", "setting": "[5]; read-out: IC50, concentration inhibiting 50% of the plaques produced by WNV", "result": 4, "unit": "µg/mL"}, {"measurement": "pIC50", "setting": "[5]", "result": 5.22}, {"measurement": "Therapeutic Index (TI), CC50/IC50, WNV", "setting": "[5]; ratio of CC50 to IC50", "result": 19}, {"measurement": "Minimum contact period required to completely inhibit virus replication", "setting": "[10]; JEV infected PS cells", "result": 8, "unit": "h"}, {"measurement": "Inhibition of virus replication (viral antigen, viral RNA, infectious virus yield)", "setting": "[10]; SCH 16 in contact with infected cultures for more than 8 hours post-infection", "result": "complete inhibition of virus replication"}, {"measurement": "Inhibition of virus replication (viral antigen, viral RNA, infectious virus yield)", "setting": "[10]; SCH16 withdrawn at earlier time points", "result": "no inhibition of virus replication"}, {"measurement": "In vitro translation of viral RNA into JEV proteins", "setting": "[11]; RNA from JEV infected cells treated with SCH 16 for 4 hours", "result": "failed to translate into JEV proteins"}, {"measurement": "In vitro translation of viral RNA into JEV proteins", "setting": "[11]; RNA from infected cells treated with SCH 16 at 10 hours", "result": "showed the presence of JEV proteins"}]}
